According to patent US20040131701A1, “Method to treat infectious diseases and/or to enhance antimicrobial efficacy of drugs” (Virocell Inc., priority 2000, published 2004):

Tests used:
[1] = tested on: recombinant luciferase-encoding virions (NL4-3 backbone) pseudotyped with macrophage-tropic ADA envelope; assay: Infection of primary human MDM with luciferase-encoding virions, ADA envelope; format: cell-based, HIV-1; conditions: 48 h
Source text: (§1) Fully infectious viral entities were generated by calcium phosphate transfection of 293T with pNL4-3 vector (T-tropic virions) as described below. Recombinant luciferase-encoding virus particles pseudotyped with the appropriate Env proteins have been used in our series of investigations. […] This test is based on the molecular construct pNL4-3-Luc-E-R+, a vector that carries the gene for firefly luciferase inserted into the nef gene of the pNL4-3 provirus and contains also a frameshift at the 5′ end of env (nt 5950) that prevents expression of the envelope glycoproteins. Progeny viruses were generated by cotransfecting 293T cells with pNL4-3-Luc-E-R+ and a plasmid DNA encoding for the appropriate envelope glycoproteins (T or macrophage-tropic). Briefly, a typical transfection experiment was performed as follow. In brief, 293T cells were plated 24 h before transfection at a concentration of 5×10^5 cells per 3 ml of DMEM into each well of 6-well plates. All solutions were brought to room temperature before use. Immediately before transfection, DNA was added to 25 μl of 2.5M CaCl2 and the volume was completed to 250 μl with distilled water. This solution was then added drop by drop to 250 μl of 2×HBS solution (280 mM NaCl, 50 mM HEPES, 1.5 mM Na2HPO4, pH 7.05) and the resulting mixture was stored at room temperature for 5 min. This DNA-HBS mixture was finally added drop by drop to plated 293T cells before incubation at 37° C. under a 5% CO2atmosphere. At 16 h after transfection, cells were washed twice with 3 ml of PBS and were incubated for an additional 24 h with 3 ml of DMEM supplemented with 10% FBS. Virion-containing supernatants were filtered through a 0.45-μm cellulose acetate membrane (Millipore, Mass.), aliquoted in 200 μl fractions, and were finally frozen at −85° C. until needed. Virus stocks were normalized for virion content using a commercial assay for the viral major core protein p24 (Organon Teknika, Durham, N.C.).
(§2) In brief, 100 μl of cell-free supernatant were discarded from each well and 25 μl of cell culture lysis buffer 5×(125 mM Tris phosphate [pH 7.8], 10 mM DTT, 5% Triton X-100, and 50% glycerol) were added to the wells before incubation at room temperature for 30 min. An aliquot of cell lysate (20 μl) was mixed with 100 μl luciferase assay buffer (20 mM tricine, 1.07 mM (MgCO3)4. Mg(OH)2.5H2O, 2.67 mM MgSO4, 0.1 mM EDTA, 270 μM coenzyme A, 470 μM luciferin, 530 μM ATP, and 33.3 mM DTT). Luciferase activity was monitored using a microplate luminometer (MLX; Dynex Technologies, Chantilly, Va.).

[2] = tested on: recombinant luciferase-encoding virions (NL4-3 backbone) pseudotyped with T-tropic HXB-2D envelope; assay: Infection of Jurkat cells with luciferase-encoding virions, HXB-2D envelope; format: cell-based, HIV-1; conditions: 72 h
Source text: as §1, §2
We attempted to define any putative interaction (additive, synergistic or antagonistic) between bpV compounds and currently approved anti-HIV-1 agents (AZT/Zidovudine, 3TC/Epivir/Lamivudine). […]

[3] = tested on: macrophage-tropic recombinant luciferase-encoding HIV-1 particles; assay: Infection of PM1 cells with luciferase reporter virus, macrophage-tropic envelope; format: cell-based; conditions: 5 min pretreatment, 72 h
Source text: Fully infectious viral entities were generated by calcium phosphate transfection of 293T with pNL4-3 vector (T-tropic virions) as described below. Recombinant luciferase-encoding virus particles pseudotyped with the appropriate Env proteins have been used in our series of investigations. Such a system provides a highly sensitive and reproducible assay to monitor single-cycle viral infection events. This test is based on the molecular construct pNL4-3-Luc-E-R+, a vector that carries the gene for firefly luciferase inserted into the nef gene of the pNL4-3 provirus and contains also a frameshift at the 5′ end of env (nt 5950) that prevents expression of the envelope glycoproteins. Progeny viruses were generated by cotransfecting 293T cells with pNL4-3-Luc-E-R+ and a plasmid DNA encoding for the appropriate envelope glycoproteins (T or macrophage-tropic). Briefly, a typical transfection experiment was performed as follow. […]
In brief, 100 μl of cell-free supernatant were discarded from each well and 25 μl of cell culture lysis buffer 5×(125 mM Tris phosphate [pH 7.8], 10 mM DTT, 5% Triton X-100, and 50% glycerol) were added to the wells before incubation at room temperature for 30 min. […] Luciferase activity was monitored using a microplate luminometer (MLX; Dynex Technologies, Chantilly, Va.). […]

Question: How did the “HIV-1 infection (luciferase activity)” value ([1]; MDM, 10 μM alone, 15 min pretreatment) turn out when K2[VO(O2)2pic].H2O [bpV[pic]] was run?
Answer: inhibits HIV-1 infection

Question: And the “anti-HIV-1 efficacy (luciferase activity)” value ([1]; MDM, 10 μM bpV[pic] or 5 μM bpV[phen], pretreatment 5 to 120 min)?
Answer: maintained over several pretreatment periods

Question: What about the “antiviral effect in combination with 3TC” value ([1]; MDM, 10 μM bpV[pic] with 0.035 μM 3TC, 15 min pretreatment) of the same substance?
Answer: additive antiviral effect

Question: And the “anti-HIV-1 effect in combination with 3TC” value ([1]; MDM, 1, 5 and 10 μM bpV[pic] with 0.07 μM 3TC, 5 min pretreatment)?
Answer: dose-dependent additive anti-HIV-1 effect

Question: And the “HIV-1 infection (luciferase activity)” value ([2]; bpV compound alone (2.5, 5, 10 μM))?
Answer: inhibits HIV-1 infection

Question: And the “antiviral effect in combination with 3TC” value ([2]; combined with 0.05 μM 3TC)?
Answer: greater antiviral effect

Question: What about the “antiviral effect in combination with AZT” value ([2]; combined with 0.05 μM AZT) of the same substance?
Answer: greater antiviral effect

Question: And the “infection (luciferase activity)” value [3]?
Answer: dose-dependent inhibition of infection
